Laboratory results as given in ChEMBL document CHEMBL1201862, “PubChem BioAssay data set” (2004).
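Growth conditions: 96-well plates. Treatment: test compound, 48 hours, 5 concentrations. Analysis: linear interpolation between bracketing concentrations; unreached endpoints set to highest concentration. GI50 = concentration required for 50% inhibition of growth.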 Activity calls are given as the source filed them. Rule as the data show it: active = GI50 up to about 1.1 µM and inactive = higher.

How the values were obtained:
Test in all cases: inhibition of tumour cell growth, NCI panel, 48 h
786-0 = system: 786-0
COLO 205 = system: COLO 205
DU-145 = system: DU-145
HCT-116 = system: HCT-116
HL-60 = system: HL-60
HOP-62 = system: HOP-62
HT-29 = system: HT-29
M14 = system: M14
MDA-MB-435 = system: MDA-MB-435
NCI-H522 = system: NCI-H522
SF-295 = system: SF-295
SK-MEL-28 = system: SK-MEL-28
SK-MEL-2 = system: SK-MEL-2
SN12C = system: SN12C
TK-10 = system: TK-10
K562 = system: K562
Malme-3M = system: Malme-3M
RXF 393 = system: RXF 393

Measured: GI50

O=C(/C=C/c1ccc(Cl)c(Cl)c1)Oc1ccc(/C=C2\CCCCC2=O)cc1
inactive: 786-0 > 100 µM | COLO 205 > 100 µM | DU-145 > 100 µM | HCT-116 > 100 µM | HL-60 25.4 µM | HOP-62 > 100 µM | HT-29 > 100 µM | M14 > 100 µM | MDA-MB-435 78.2 µM | NCI-H522 91.8 µM | SF-295 > 100 µM | SK-MEL-28 > 100 µM | SK-MEL-2 > 100 µM | SN12C > 100 µM | TK-10 > 100 µM

CC1=[N+]([O-])C(C)(C)N(O)C1(C)C
inactive: 786-0 > 100 µM | COLO 205 > 100 µM | DU-145 > 100 µM | HCT-116 > 100 µM | HL-60 > 100 µM | HOP-62 > 100 µM | HT-29 > 100 µM | K562 > 100 µM | M14 > 100 µM | MDA-MB-435 > 100 µM | Malme-3M > 100 µM | NCI-H522 > 100 µM | RXF 393 > 100 µM | SF-295 > 100 µM | SK-MEL-28 > 100 µM | SK-MEL-2 > 100 µM | SN12C > 100 µM | TK-10 > 100 µM

C[C@@H]1O[C@@H]2OCC[C@@H]2C2=C1C(=O)c1ccccc1C2=O
inactive: 786-0 12.3 µM | COLO 205 23.9 µM | DU-145 9.1 µM | HL-60 3.51 µM | HOP-62 17.3 µM | HT-29 40 µM | K562 10.1 µM | M14 3.98 µM | MDA-MB-435 1.94 µM | Malme-3M 2.19 µM | NCI-H522 6.65 µM | RXF 393 3.46 µM | SF-295 15.8 µM | SK-MEL-28 13.9 µM | SK-MEL-2 11 µM | SN12C 6.35 µM | TK-10 19.7 µM

O=C(NO)c1ccc(C(=O)NO)cc1
inactive: 786-0 > 100 µM | COLO 205 49.7 µM | DU-145 34.5 µM | HCT-116 56.1 µM | HL-60 42.7 µM | HOP-62 62.2 µM | HT-29 87.9 µM | K562 38.4 µM | M14 97.9 µM | MDA-MB-435 48 µM | Malme-3M 9.27 µM | RXF 393 50.4 µM | SF-295 > 100 µM | SK-MEL-28 > 100 µM | SN12C > 100 µM | TK-10 76 µM

COC1(OC)N=C(N)C2(C#N)C(C)=C3NCN(C)N=C3C12C#N (configuration not stated)
inactive: 786-0 > 100 µM | COLO 205 > 100 µM | DU-145 > 100 µM | HCT-116 > 100 µM | HL-60 > 10 µM | HOP-62 > 100 µM | HT-29 > 100 µM | K562 > 100 µM | M14 > 100 µM | MDA-MB-435 > 100 µM | Malme-3M > 100 µM | NCI-H522 > 100 µM | RXF 393 > 100 µM | SF-295 > 100 µM | SK-MEL-28 > 100 µM | SK-MEL-2 > 100 µM | SN12C > 100 µM | TK-10 > 100 µM

COc1ccc2cc(C(=O)NCCc3ccccc3)ccc2c1OC
inactive: 786-0 39.4 µM | COLO 205 > 100 µM | DU-145 > 100 µM | HCT-116 96.6 µM | HOP-62 32.1 µM | HT-29 67.6 µM | K562 83.6 µM | M14 > 100 µM | MDA-MB-435 > 100 µM | Malme-3M > 100 µM | RXF 393 30.5 µM | SF-295 69.2 µM | SK-MEL-28 > 100 µM | SK-MEL-2 71.9 µM | SN12C > 100 µM

COC(=O)/C=C1/SC(/C(=C(/[O-])OC)[n+]2ccc3ccccc3c2)=NC1=O
inactive: 786-0 > 100 µM | COLO 205 > 100 µM | DU-145 > 100 µM | HCT-116 > 100 µM | HL-60 > 100 µM | HOP-62 > 100 µM | HT-29 > 100 µM | K562 > 100 µM | M14 > 100 µM | MDA-MB-435 > 100 µM | Malme-3M > 100 µM | NCI-H522 > 100 µM | RXF 393 > 100 µM | SF-295 > 100 µM | SK-MEL-28 > 100 µM | SK-MEL-2 > 100 µM | SN12C > 100 µM

COc1ccc2nc3ccc(OC)cc3c(S(=O)(=O)Cc3ccc([N+](=O)[O-])cc3)c2c1
inactive: 786-0 66.4 µM | COLO 205 > 100 µM | DU-145 > 100 µM | HCT-116 > 100 µM | HL-60 > 100 µM | HOP-62 93.5 µM | HT-29 68.7 µM | K562 > 100 µM | M14 > 100 µM | MDA-MB-435 > 100 µM | Malme-3M > 100 µM | NCI-H522 > 100 µM | RXF 393 > 100 µM | SF-295 61.5 µM | SK-MEL-28 > 100 µM | SK-MEL-2 > 100 µM | SN12C > 100 µM | TK-10 > 100 µM

O=[N+]([O-])c1cc2c(c3nonc13)OCCCCO2
inactive: 786-0 2.02 µM | COLO 205 4.95 µM | DU-145 15 µM | HCT-116 1.75 µM | HL-60 2.55 µM | HOP-62 4.37 µM | HT-29 3.88 µM | K562 3.64 µM | M14 5 µM | MDA-MB-435 5.25 µM | Malme-3M 3.66 µM | NCI-H522 4.39 µM | RXF 393 7.74 µM | SF-295 17.5 µM | SK-MEL-28 9.89 µM | SK-MEL-2 13.8 µM | SN12C 4.6 µM | TK-10 21.8 µM
